The term EC50 denotes the concentration needed to bring the measured effect to its halfway point. What is called IC50 is the point on the concentration scale where inhibition reaches its midpoint. A high value points to weaker potency. By Ki is commonly meant a dissociation constant, usually derived from enzyme kinetics or from competition with a known ligand. Low values mean a stronger hold on the target, high ones a looser hold on the target. One may read the half-life as the time in which the quantity being followed falls by half. The low end stands for rapid decline, the high end for slow decline. Broadly, the bioavailability is dose-corrected exposure relative to a reference, in per cent. Lower therefore signals poor availability.

The source of these data is ChEMBL document CHEMBL4406790, “Targeted Treatments for Chronic Obstructive Pulmonary Disease (COPD) Using Low-Molecular-Weight Drugs (LMWDs)” (J Med Chem, 2019).

The target of data set [1] is T1, Beta-2 adrenergic receptor (Homo sapiens, UniProt P07550). As to the kind of experiment: Agonist activity at human beta2 adrenoceptor.
For data set [2], the target named is Muscarinic acetylcholine receptor M3 (Homo sapiens, UniProt P20309). As to the kind of experiment: Antagonist activity at human M3 receptor.
Data set [3] addresses 3',5'-cyclic-AMP phosphodiesterase 4B (Homo sapiens, UniProt Q07343). Put plainly: Inhibition of PDE4B2 (unknown origin).
Data set [4] has as its target T1, Beta-2 adrenergic receptor. As to the kind of experiment: Inhibition of beta2 adrenoceptor (unknown origin).
For data set [5], the target named is Macrophage metalloelastase (Homo sapiens, UniProt P39900). As to the kind of experiment: Inhibition of MMP12 (unknown origin).
Data set [6] deals with T2, Muscarinic acetylcholine receptor M2 (Homo sapiens, UniProt P08172).
T2 sequence (P08172 whole entry): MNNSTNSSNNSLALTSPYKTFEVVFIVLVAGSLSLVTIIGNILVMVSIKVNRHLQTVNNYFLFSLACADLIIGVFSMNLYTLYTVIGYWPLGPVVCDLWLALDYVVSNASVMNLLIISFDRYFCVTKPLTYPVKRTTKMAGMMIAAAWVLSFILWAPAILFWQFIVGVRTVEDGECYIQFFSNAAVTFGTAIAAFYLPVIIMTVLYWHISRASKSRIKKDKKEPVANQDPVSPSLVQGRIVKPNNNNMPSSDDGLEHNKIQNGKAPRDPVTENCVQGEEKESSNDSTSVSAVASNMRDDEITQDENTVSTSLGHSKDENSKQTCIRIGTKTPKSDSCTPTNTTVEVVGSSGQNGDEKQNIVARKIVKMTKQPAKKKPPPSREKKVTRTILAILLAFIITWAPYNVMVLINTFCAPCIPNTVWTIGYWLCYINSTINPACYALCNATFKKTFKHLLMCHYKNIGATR
As to the kind of experiment: Inhibition of M2 receptor (unknown origin).

Data set [7] deals with Voltage-gated inwardly rectifying potassium channel KCNH2 (Homo sapiens, UniProt Q12809). Put plainly: Inhibition of human ERG by high throughput automated patch clamp method. (In general: In patch-clamp work, channel activity is measured electrically.)
Data set [8] can be described thus: Half life in human. It is filed as ADME.
Data set [9] in a line: Oral bioavailability in human. The data set is classed as ADME, organism-based. The note with it: in vivo.
The nature of data set [10]: Inhibition of TNFalpha-induced NFkappaB (unknown origin). Further details: species or system Homo sapiens.

The structures appear in SMILES notation.

T1 sequence (P07550 whole entry): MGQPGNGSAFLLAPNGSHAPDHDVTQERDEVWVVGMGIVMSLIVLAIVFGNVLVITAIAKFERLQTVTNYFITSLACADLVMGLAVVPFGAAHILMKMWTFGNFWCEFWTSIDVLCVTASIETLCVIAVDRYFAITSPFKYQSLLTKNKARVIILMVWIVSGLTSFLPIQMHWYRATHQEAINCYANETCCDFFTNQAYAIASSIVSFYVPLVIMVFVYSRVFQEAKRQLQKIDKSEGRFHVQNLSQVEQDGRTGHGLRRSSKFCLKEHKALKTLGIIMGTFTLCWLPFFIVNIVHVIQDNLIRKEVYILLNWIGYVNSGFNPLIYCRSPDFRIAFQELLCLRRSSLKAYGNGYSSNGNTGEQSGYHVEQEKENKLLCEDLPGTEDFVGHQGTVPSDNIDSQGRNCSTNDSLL
Sequence of Muscarinic acetylcholine receptor M3 (P20309 whole entry): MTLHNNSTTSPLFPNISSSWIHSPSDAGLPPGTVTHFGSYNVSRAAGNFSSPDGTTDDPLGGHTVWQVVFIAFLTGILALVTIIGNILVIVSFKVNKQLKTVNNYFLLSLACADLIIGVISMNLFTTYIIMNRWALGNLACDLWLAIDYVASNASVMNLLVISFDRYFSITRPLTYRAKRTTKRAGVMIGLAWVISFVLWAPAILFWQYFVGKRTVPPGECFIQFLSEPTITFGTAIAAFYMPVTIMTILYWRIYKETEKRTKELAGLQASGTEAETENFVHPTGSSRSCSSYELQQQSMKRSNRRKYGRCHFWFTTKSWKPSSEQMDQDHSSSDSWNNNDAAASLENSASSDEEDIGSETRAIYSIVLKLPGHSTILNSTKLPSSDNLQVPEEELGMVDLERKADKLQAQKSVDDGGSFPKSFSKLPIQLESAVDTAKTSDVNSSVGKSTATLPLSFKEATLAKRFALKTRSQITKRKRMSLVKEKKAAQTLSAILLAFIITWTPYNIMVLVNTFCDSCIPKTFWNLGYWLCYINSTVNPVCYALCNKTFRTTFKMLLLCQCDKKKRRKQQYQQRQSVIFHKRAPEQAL
Sequence of Macrophage metalloelastase (P39900 whole entry): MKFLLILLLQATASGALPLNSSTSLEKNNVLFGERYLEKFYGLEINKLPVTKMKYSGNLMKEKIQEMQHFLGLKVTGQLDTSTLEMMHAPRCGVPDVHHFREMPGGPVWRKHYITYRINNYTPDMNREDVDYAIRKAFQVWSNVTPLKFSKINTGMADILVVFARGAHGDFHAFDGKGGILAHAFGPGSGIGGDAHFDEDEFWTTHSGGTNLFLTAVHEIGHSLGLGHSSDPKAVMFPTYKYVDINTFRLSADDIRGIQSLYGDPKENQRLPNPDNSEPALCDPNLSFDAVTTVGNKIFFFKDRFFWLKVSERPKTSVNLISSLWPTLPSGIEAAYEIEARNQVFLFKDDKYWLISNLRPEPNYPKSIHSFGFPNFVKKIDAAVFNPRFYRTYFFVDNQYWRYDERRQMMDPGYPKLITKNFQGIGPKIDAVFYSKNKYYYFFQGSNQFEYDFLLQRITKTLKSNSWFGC
Sequence of 3',5'-cyclic-AMP phosphodiesterase 4B (Q07343 whole entry): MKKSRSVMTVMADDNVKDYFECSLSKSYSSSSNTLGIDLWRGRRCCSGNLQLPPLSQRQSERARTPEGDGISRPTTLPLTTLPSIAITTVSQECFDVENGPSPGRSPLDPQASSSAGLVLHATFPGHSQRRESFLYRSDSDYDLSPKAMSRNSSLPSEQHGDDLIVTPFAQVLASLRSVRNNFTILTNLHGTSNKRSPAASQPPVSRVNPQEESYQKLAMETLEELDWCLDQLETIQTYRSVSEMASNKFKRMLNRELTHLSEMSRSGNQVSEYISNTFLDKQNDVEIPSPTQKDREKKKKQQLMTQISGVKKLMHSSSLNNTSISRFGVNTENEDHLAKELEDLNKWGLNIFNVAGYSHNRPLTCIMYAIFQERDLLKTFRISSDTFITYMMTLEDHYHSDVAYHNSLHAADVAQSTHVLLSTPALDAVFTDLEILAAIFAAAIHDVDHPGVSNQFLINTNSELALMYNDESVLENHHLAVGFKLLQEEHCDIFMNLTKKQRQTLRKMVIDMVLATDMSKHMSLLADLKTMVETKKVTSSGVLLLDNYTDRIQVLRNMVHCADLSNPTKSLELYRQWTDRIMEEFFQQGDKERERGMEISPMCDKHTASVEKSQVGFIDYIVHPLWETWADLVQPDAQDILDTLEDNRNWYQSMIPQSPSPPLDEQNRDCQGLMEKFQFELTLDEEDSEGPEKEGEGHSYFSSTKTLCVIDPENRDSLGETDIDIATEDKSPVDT
Sequence of Voltage-gated inwardly rectifying potassium channel KCNH2 (Q12809 whole entry): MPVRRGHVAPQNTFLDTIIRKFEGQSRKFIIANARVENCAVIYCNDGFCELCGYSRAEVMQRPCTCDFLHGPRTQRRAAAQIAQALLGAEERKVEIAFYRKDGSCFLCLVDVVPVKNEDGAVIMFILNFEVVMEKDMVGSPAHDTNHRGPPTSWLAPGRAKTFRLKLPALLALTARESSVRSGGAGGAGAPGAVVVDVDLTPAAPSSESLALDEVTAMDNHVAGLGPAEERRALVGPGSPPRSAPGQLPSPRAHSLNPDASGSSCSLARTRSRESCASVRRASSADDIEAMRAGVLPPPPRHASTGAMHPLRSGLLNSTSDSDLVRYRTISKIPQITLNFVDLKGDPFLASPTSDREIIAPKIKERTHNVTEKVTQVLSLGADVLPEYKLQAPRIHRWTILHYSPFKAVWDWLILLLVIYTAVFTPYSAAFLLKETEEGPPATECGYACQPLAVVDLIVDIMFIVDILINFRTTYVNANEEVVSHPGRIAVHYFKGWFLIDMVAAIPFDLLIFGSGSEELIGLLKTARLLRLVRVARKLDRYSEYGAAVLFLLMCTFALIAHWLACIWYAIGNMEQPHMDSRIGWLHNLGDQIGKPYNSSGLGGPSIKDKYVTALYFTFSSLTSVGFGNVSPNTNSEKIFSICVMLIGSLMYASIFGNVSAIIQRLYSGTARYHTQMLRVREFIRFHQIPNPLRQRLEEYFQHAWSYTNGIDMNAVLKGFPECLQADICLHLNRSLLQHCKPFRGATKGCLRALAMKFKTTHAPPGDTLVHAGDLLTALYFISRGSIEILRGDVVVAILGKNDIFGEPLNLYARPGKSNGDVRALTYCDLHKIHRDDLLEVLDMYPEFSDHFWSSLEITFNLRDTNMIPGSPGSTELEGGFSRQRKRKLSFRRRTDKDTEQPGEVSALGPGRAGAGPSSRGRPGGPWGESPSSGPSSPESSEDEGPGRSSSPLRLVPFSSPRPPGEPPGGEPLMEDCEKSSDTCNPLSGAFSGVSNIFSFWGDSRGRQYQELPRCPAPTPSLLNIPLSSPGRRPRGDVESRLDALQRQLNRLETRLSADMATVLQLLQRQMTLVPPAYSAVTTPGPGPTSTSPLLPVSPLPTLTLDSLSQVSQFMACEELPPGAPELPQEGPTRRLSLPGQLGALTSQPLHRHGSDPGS

In [1], `COc1cc(NC(=O)OCCN(C)[C@H]2CC[C@H](OC(=O)C(O)(c3cccs3)c3cccs3)CC2)c(Cl)cc1CNC[C@H](O)c1ccc(O)c2[nH]c(=O)ccc12` [LAS190792] showed an EC50 of 0.251 nM.

In the case of `COc1cc(NC(=O)CCN2CCC(OC(=O)Nc3ccccc3-c3ccccc3)CC2)c(Cl)cc1CNC[C@H](O)c1ccc(O)c2[nH]c(=O)ccc12` [BATEFENTEROL], half-maximal inhibition in data set [2] (IC50) required 1.58 nM.

Take `COc1cccc(Nc2c(C(N)=O)cnc3c(C)cc(S(=O)(=O)c4cccc(C(=O)Nc5ccc(C#CCCCNC[C@H](O)c6ccc(O)c7[nH]c(=O)ccc67)cc5)c4)cc23)c1`: the half-maximal inhibitory concentration (IC50) in [3] worked out at 5 nM; in data set [4], 11 nM.

In the case of `COc1ccc(Oc2ccc(S(=O)(=O)c3ccccc3CC(=O)NO)cc2)cc1`, the IC50 in [5] amounted to 0.2 nM.

On to `CN(CCCn1nnc2cc(CNC[C@H](O)c3ccc(O)c4[nH]c(=O)ccc34)ccc21)[C@H]1CC[C@H](OC(=O)C(O)(c2cccs2)c2cccs2)CC1` [NAVAFENTEROL], for which the EC50 in data set [1] is 0.251 nM. In data set [2], this compound gave an IC50 of 1.58 nM.

`C[N+]12CCC(CC1)C(OCC(O)(c1ccccc1)C1CCCC1)C2` (stereo unspecified) [BENCYCLOQUIDIUM BROMIDE]: the Ki in [6] is 6.17 nM.

Take `CC(C)(O)c1coc(S(=O)(=O)NC(=O)Nc2c3c(cc4c2CCC4)CCC3)c1`: in data set [7], the IC50 was greater than 30000 nM. In [8], the half-life is 3.27 h. This compound had a bioavailability in data set [9] of 68%.

For the compound `O=C(Nc1cc(C(F)(F)F)cc(C(F)(F)F)c1)c1cc(Cl)ccc1O` [IMD-0354], the half-inhibitory concentration (IC50) in data set [10] came out at 1200 nM. This lies in the single-digit micromolar range.

The compound `CC1=C(C#N)[C@@H](c2ccc(C#N)cc2S(C)(=O)=O)N(C)C(=O)N1c1cccc(C(F)(F)F)c1` gave a half-life in [8] of 8.5 h. The bioavailability in data set [9] amounted to 63%.

On to `CC(C)c1ncc(C(=O)N2CCOC3(CCN(Cc4ccc(F)c(CCNC[C@H](O)c5ccc(O)c6[nH]c(=O)sc56)c4)CC3)C2)s1`, for which the response in data set [1] was half-maximal at 0.251 nM (EC50). The compound further showed a half-maximal inhibitory concentration (IC50) in data set [2] of 1.58 nM.
